{"source": "EPA's ToxRefDB 2", "key": {"rat [1]": {"tested_on": "rat", "conditions": "Fertility (Segment I); sprague dawley; Oral; Gavage/Intubation; dose end: 4 week; group: parental; systemic / organ weight / epididymis / relative to body weight + systemic / pathology microscopic / epididymis / [other] + systemic / …"}, "rabbit": {"tested_on": "rabbit", "conditions": "Prenatal developmental toxicity study; chinchilla; Oral; Gavage/Intubation; dose end: 18 GD; group: maternal; reproductive / reproductive performance / postimplantation loss / postimplantation loss + systemic / in life observation / body weight / …"}, "mouse [2]": {"tested_on": "mouse", "conditions": "Carcinogenicity, b6c3f1, Oral, Feed, dose end: 24 month, group: systemic"}, "dog [3]": {"tested_on": "dog", "conditions": "Chronic toxicity; beagle; Oral; Feed; dose end: 26 week; group: systemic; systemic / in life observation / body weight / body weight + systemic / clinical chemistry / [other] / [other] + systemic / clinical …"}, "dog [4]": {"tested_on": "dog", "conditions": "Chronic toxicity, beagle, Oral, Feed, dose end: 12 month"}, "rat [5]": {"tested_on": "rat", "conditions": "Combined chronic toxicity/carcinogenicity, other, Oral, Feed, dose end: 106 week"}, "mouse [6]": {"tested_on": "mouse", "conditions": "Subchronic oral toxicity in rodents, b6c3f1, Feed, dose end: 13 week, group: systemic, systemic / in life observation / body weight / body weight"}, "mouse [7]": {"tested_on": "mouse", "conditions": "Carcinogenicity, b6c3f1, Oral, Feed, dose end: 103 week, group: systemic"}, "rat [8]": {"tested_on": "rat", "conditions": "Carcinogenicity; fischer; Oral; Feed; dose end: 103 week; group: systemic; systemic / in life observation / clinical signs / drooping eyelids (ptosis) + systemic / pathology microscopic / adrenal gland / …"}, "rat [9]": {"tested_on": "rat", "conditions": "Multigenerational reproductive toxicity study, other, Oral, Feed, dose end: 3 generation, group: parental"}, "[10]": {"conditions": "systemic / clinical chemistry / alanine aminotransferase (alt/sgpt) / alanine aminotransferase (alt/sgpt) + systemic / organ weight / liver…"}, "[11]": {"conditions": "systemic / clinical chemistry / protein / protein"}, "[12]": {"conditions": "group: cholinesterase, cholinesterase / cholinesterase / cholinesterase / erythrocyte cholinesterase (che) + cholinesterase / cholinesterase / cholinesterase / …"}, "[13]": {"conditions": "group: systemic, systemic / clinical chemistry / cholesterol / cholesterol"}, "[14]": {"conditions": "group: systemic, systemic / clinical chemistry / cholesterol / cholesterol + systemic / in life observation / clinical signs / vomitting"}, "[15]": {"conditions": "group: cholinesterase, cholinesterase / cholinesterase / cholinesterase / plasma cholinesterase (che) + cholinesterase / cholinesterase / cholinesterase / …"}, "[16]": {"conditions": "group: systemic, systemic / in life observation / body weight / body weight + systemic / in life observation / food consumption / food consumption"}, "[17]": {"conditions": "group: systemic, systemic / in life observation / body weight / body weight + systemic / in life observation / food consumption / food consumption + systemic…"}, "[18]": {"conditions": "systemic / in life observation / body weight / body weight"}, "[19]": {"conditions": "systemic / in life observation / body weight / body weight + systemic / pathology microscopic / mammary gland / mixed tumor malignant + …"}, "[20]": {"conditions": "systemic / in life observation / body weight / body weight gain"}, "[21]": {"conditions": "systemic / in life observation / mortality / mortality + systemic / pathology microscopic / liver / hypertrophy + systemic / pathology …"}}, "data": [{"compound": "COS(C)(=O)=O", "note": "[Methyl methanesulfonate]", "values": [{"measurement": "LEL", "setting": "rat [1]", "result": 20, "unit": "mg/kg/day"}, {"measurement": "LOAEL", "setting": "rat [1]", "result": "> 20", "unit": "mg/kg/day"}, {"measurement": "NEL", "setting": "rat [1]", "result": "< 20", "unit": "mg/kg/day"}, {"measurement": "NOAEL", "setting": "rat [1]", "result": "≥ 20", "unit": "mg/kg/day"}]}, {"compound": "CNC(=O)Oc1ccccc1OC(C)C", "note": "[Propoxur]", "values": [{"measurement": "LEL", "setting": "rabbit", "result": 30, "unit": "mg/kg/day"}, {"measurement": "LOAEL", "setting": "rabbit", "result": 30, "unit": "mg/kg/day"}, {"measurement": "NEL", "setting": "rabbit", "result": 10, "unit": "mg/kg/day"}, {"measurement": "NOAEL", "setting": "rabbit", "result": 10, "unit": "mg/kg/day"}, {"measurement": "LOAEL", "setting": "mouse [2]; [10]", "result": 472, "unit": "mg/kg/day"}, {"measurement": "NOAEL", "setting": "mouse [2]; [10]", "result": 114, "unit": "mg/kg/day"}, {"measurement": "LEL", "setting": "mouse [2]; [11]", "result": 150, "unit": "mg/kg/day"}, {"measurement": "NEL", "setting": "mouse [2]; [11]", "result": "< 150", "unit": "mg/kg/day"}, {"measurement": "LEL", "setting": "dog [3]", "result": 1.75, "unit": "mg/kg/day"}, {"measurement": "LOAEL", "setting": "dog [3]", "result": "> 1.75", "unit": "mg/kg/day"}, {"measurement": "NEL", "setting": "dog [3]", "result": "< 1.75", "unit": "mg/kg/day"}, {"measurement": "NOAEL", "setting": "dog [3]", "result": "≥ 1.75", "unit": "mg/kg/day"}, {"measurement": "LEL", "setting": "dog [4]; [12]", "result": 781, "unit": "mg/kg/day"}, {"measurement": "LOAEL", "setting": "dog [4]; [12]", "result": "> 781", "unit": "mg/kg/day"}, {"measurement": "NEL", "setting": "dog [4]; [12]", "result": 186, "unit": "mg/kg/day"}, {"measurement": "NOAEL", "setting": "dog [4]; [12]", "result": "≥ 781", "unit": "mg/kg/day"}, {"measurement": "LOAEL", "setting": "dog [4]; [13]", "result": 62.4, "unit": "mg/kg/day"}, {"measurement": "NOAEL", "setting": "dog [4]; [13]", "result": "< 62.4", "unit": "mg/kg/day"}, {"measurement": "LEL", "setting": "dog [4]; [14]", "result": 62.4, "unit": "mg/kg/day"}, {"measurement": "NEL", "setting": "dog [4]; [14]", "result": "< 62.4", "unit": "mg/kg/day"}, {"measurement": "NEL", "setting": "rat [5]; group: cholinesterase, cholinesterase / cholinesterase / cholinesterase / plasma cholinesterase (che)", "result": 50, "unit": "mg/kg/day"}, {"measurement": "LEL", "setting": "rat [5]; [15]", "result": 250, "unit": "mg/kg/day"}, {"measurement": "LOAEL", "setting": "rat [5]; [15]", "result": "> 250", "unit": "mg/kg/day"}, {"measurement": "NOAEL", "setting": "rat [5]; [15]", "result": "≥ 250", "unit": "mg/kg/day"}, {"measurement": "LEL", "setting": "rat [5]; [16]", "result": 10, "unit": "mg/kg/day"}, {"measurement": "NEL", "setting": "rat [5]; [16]", "result": "< 10", "unit": "mg/kg/day"}, {"measurement": "LOAEL", "setting": "rat [5]; [17]", "result": 250, "unit": "mg/kg/day"}, {"measurement": "NOAEL", "setting": "rat [5]; [17]", "result": 50, "unit": "mg/kg/day"}]}, {"compound": "COC(=O)[C@H]1[C@H]2C[C@@H]3c4[nH]c5cc(OC)ccc5c4CCN3C[C@H]2C[C@@H](OC(=O)c2cc(OC)c(OC)c(OC)c2)[C@@H]1OC", "note": "[Reserpine]", "values": [{"measurement": "LEL", "setting": "mouse [6]", "result": 0.06, "unit": "mg/kg/day"}, {"measurement": "LOAEL", "setting": "mouse [6]", "result": 0.225, "unit": "mg/kg/day"}, {"measurement": "NEL", "setting": "mouse [6]", "result": "< 0.06", "unit": "mg/kg/day"}, {"measurement": "NOAEL", "setting": "mouse [6]", "result": 0.12, "unit": "mg/kg/day"}, {"measurement": "LOAEL", "setting": "mouse [7]; [18]", "result": 0.75, "unit": "mg/kg/day"}, {"measurement": "NOAEL", "setting": "mouse [7]; [18]", "result": "< 0.75", "unit": "mg/kg/day"}, {"measurement": "LEL", "setting": "mouse [7]; [19]", "result": 0.75, "unit": "mg/kg/day"}, {"measurement": "NEL", "setting": "mouse [7]; [19]", "result": "< 0.75", "unit": "mg/kg/day"}, {"measurement": "LEL", "setting": "rat [8]", "result": 0.25, "unit": "mg/kg/day"}, {"measurement": "LOAEL", "setting": "rat [8]", "result": "> 0.5", "unit": "mg/kg/day"}, {"measurement": "NEL", "setting": "rat [8]", "result": "< 0.25", "unit": "mg/kg/day"}, {"measurement": "NOAEL", "setting": "rat [8]", "result": "≥ 0.5", "unit": "mg/kg/day"}]}, {"compound": "ClC1C(Cl)C(Cl)C(Cl)C(Cl)C1Cl", "note": "(stereo not drawn) [beta-Hexachlorocyclohexane]", "values": [{"measurement": "LEL", "setting": "rat [9]; [20]", "result": 6.25, "unit": "mg/kg/day"}, {"measurement": "NEL", "setting": "rat [9]; [20]", "result": "< 6.25", "unit": "mg/kg/day"}, {"measurement": "LOAEL", "setting": "rat [9]; [21]", "result": "> 12.5", "unit": "mg/kg/day"}, {"measurement": "NOAEL", "setting": "rat [9]; [21]", "result": "≥ 12.5", "unit": "mg/kg/day"}]}]}
